Measured values from article PMC10041525, “New Dual Inhibitors of Bacterial Topoisomerases with Broad-Spectrum Antibacterial Activity and In Vivo Efficacy against Vancomycin-Intermediate Staphylococcus aureus” (Journal of Medicinal Chemistry, 2023).
Converted amounts (≈) assume the structure as drawn. Read-outs that look alike come from different tables or passages of the source.

How the values were obtained:
[1] = test system: Haemophilus influenzae (n = 14); assay: MIC broth microdilution at IHMA Europe; type: cell-based, H. influenzae; conditions: for MIC: Haemophilus influenzae, read-out: MIC
S. pneumoniae (n = 12) = assay: MIC broth microdilution at IHMA Europe; type: cell-based; conditions: for MIC: Streptococcus pneumoniae, read-out: MIC
E. faecalis ATCC 29212 = assay: IHMA QC MIC; type: cell-based
Excerpt: Supplement jm2c01905_si_004.xlsx, sheet "QC" | column: MIC [µg/mL]

[2] = test system: 100 A. baumannii strains (50 MDR, 50 non-MDR); assay: MIC broth microdilution at IHMA Europe, panel of 100 strains; type: cell-based; conditions: Acinetobacter baumannii, read-out: MIC

## C[C@@H](O)[C@H]1C(=O)N2C(C(=O)O)=C(SCCNC=N)C[C@H]12 [Imipenem, imipenem]
[1]; H. influenzae IHMA N° 1227715
  MIC: 1 µg/mL (≈ 3.34 µM)
[1]; H. influenzae IHMA N° 1241620
  MIC: 0.5 µg/mL (≈ 1.67 µM)
[1]; H. influenzae IHMA N° 1244149
  MIC: 0.5 µg/mL (≈ 1.67 µM)
[1]; H. influenzae IHMA N° 1249803
  MIC: 0.25 µg/mL (≈ 0.835 µM)
[1]; H. influenzae IHMA N° 1254355
  MIC: 0.5 µg/mL (≈ 1.67 µM)
[1]; H. influenzae IHMA N° 1258580
  MIC: 0.5 µg/mL (≈ 1.67 µM)
[1]; H. influenzae IHMA N° 1262734
  MIC: 0.5 µg/mL (≈ 1.67 µM)
[1]; H. influenzae IHMA N° 1272723
  MIC: 0.5 µg/mL (≈ 1.67 µM)
[1]; H. influenzae IHMA N° 1286846
  MIC: 0.5 µg/mL (≈ 1.67 µM)
[1]; H. influenzae IHMA N° 1337530
  MIC: 1 µg/mL (≈ 3.34 µM)
[1]; H. influenzae IHMA N° 1440085
  MIC: 0.12 µg/mL (≈ 0.401 µM)
[1]; H. influenzae IHMA N° 1479509
  MIC: 0.5 µg/mL (≈ 1.67 µM)
[1]; H. influenzae IHMA N° 1952952
  MIC: 0.12 µg/mL (≈ 0.401 µM)
[1]; H. influenzae IHMA N° 2047461
  MIC: 0.5 µg/mL (≈ 1.67 µM)
[1]; MIC 0.5 µg/mL
  Cumulative % at MIC: 85.7%
  No. of isolates at MIC: 9
[1]; MIC 1 µg/mL
  Cumulative % at MIC: 100.0%
  No. of isolates at MIC: 2
S. pneumoniae (n = 12); MIC 0.06 µg/mL
  Cumulative % at MIC: 25.0%
  No. of isolates at MIC: 1
S. pneumoniae (n = 12); MIC 1 µg/mL
  Cumulative % at MIC: 100.0%
  No. of isolates at MIC: 1
S. pneumoniae (n = 12); MIC ≤0.015 µg/mL
  Cumulative % at MIC: 16.7%
  No. of isolates at MIC: 2
S. pneumoniae (n = 12); S. pneumoniae IHMA N° 1775387
  MIC: 0.25 µg/mL (≈ 0.835 µM)
S. pneumoniae (n = 12); S. pneumoniae IHMA N° 1776057
  MIC: 0.25 µg/mL (≈ 0.835 µM)
S. pneumoniae (n = 12); S. pneumoniae IHMA N° 1785617
  MIC: 0.25 µg/mL (≈ 0.835 µM)
S. pneumoniae (n = 12); S. pneumoniae IHMA N° 1800765
  MIC: ≤ 0.015 µg/mL
S. pneumoniae (n = 12); S. pneumoniae IHMA N° 1811259
  MIC: 0.12 µg/mL (≈ 0.401 µM)
S. pneumoniae (n = 12); S. pneumoniae IHMA N° 1831562
  MIC: ≤ 0.015 µg/mL
S. pneumoniae (n = 12); S. pneumoniae IHMA N° 1902609
  MIC: 0.12 µg/mL (≈ 0.401 µM)
S. pneumoniae (n = 12); S. pneumoniae IHMA N° 1979675
  MIC: 0.25 µg/mL (≈ 0.835 µM)
S. pneumoniae (n = 12); S. pneumoniae IHMA N° 1991963
  MIC: 1 µg/mL (≈ 3.34 µM)
S. pneumoniae (n = 12); S. pneumoniae IHMA N° 2057487
  MIC: 0.12 µg/mL (≈ 0.401 µM)
S. pneumoniae (n = 12); S. pneumoniae IHMA N° 2073087
  MIC: 0.25 µg/mL (≈ 0.835 µM)
S. pneumoniae (n = 12); S. pneumoniae IHMA N° 2117109
  MIC: 0.06 µg/mL (≈ 0.2 µM)
E. faecalis ATCC 29212; Enterococcus faecalis, ATCC29212, QC strain E. faecalis ATCC 29212, test date 2021-11-11, read-out: MIC
  MIC: 1 µg/mL (≈ 3.34 µM)
E. faecalis ATCC 29212; QC strain E. faecalis ATCC 29212, test date 2021-11-26
  MIC: 1 µg/mL (≈ 3.34 µM)
[2]; A. baumannii IHMA 1769393, Lithuania 2018, Non-MDR
  MIC: ≤ 0.25 µg/mL
[2]; A. baumannii IHMA 1769782, Israel 2018, MDR
  MIC: > 16 µg/mL
[2]; A. baumannii IHMA 1769910, Israel 2018, Non-MDR
  MIC: ≤ 0.25 µg/mL
[2]; A. baumannii IHMA 1790317, Czech Republic 2018, Non-MDR
  MIC: ≤ 0.25 µg/mL
[2]; A. baumannii IHMA 1790916, Romania 2018, Non-MDR
  MIC: ≤ 0.25 µg/mL
[2]; A. baumannii IHMA 1791877, Israel 2018, MDR
  MIC: > 16 µg/mL
[2]; A. baumannii IHMA 1792961, Jordan 2018, MDR
  MIC: > 16 µg/mL
[2]; A. baumannii IHMA 1795669, Tunisia 2018, Non-MDR
  MIC: 0.5 µg/mL (≈ 1.67 µM)
[2]; A. baumannii IHMA 1814276, Lebanon 2018, MDR
  MIC: > 16 µg/mL
[2]; A. baumannii IHMA 1815198, Kuwait 2018, MDR
  MIC: > 16 µg/mL
[2]; A. baumannii IHMA 1815856, Israel 2018, MDR
  MIC: > 16 µg/mL
[2]; A. baumannii IHMA 1821468, South Africa 2018, Non-MDR
  MIC: 0.5 µg/mL (≈ 1.67 µM)
[2]; A. baumannii IHMA 1829500, Georgia 2018, Non-MDR
  MIC: ≤ 0.25 µg/mL
[2]; A. baumannii IHMA 1830924, United Kingdom 2018, Non-MDR
  MIC: ≤ 0.25 µg/mL
[2]; A. baumannii IHMA 1849819, Kuwait 2018, MDR
  MIC: > 16 µg/mL
[2]; A. baumannii IHMA 1849829, Kuwait 2018, Non-MDR
  MIC: ≤ 0.25 µg/mL
[2]; A. baumannii IHMA 1857118, Slovenia 2018, Non-MDR
  MIC: ≤ 0.25 µg/mL
[2]; A. baumannii IHMA 1863631, France 2018, Non-MDR
  MIC: ≤ 0.25 µg/mL
[2]; A. baumannii IHMA 1870054, United States 2018, Non-MDR
  MIC: ≤ 0.25 µg/mL
[2]; A. baumannii IHMA 1884428, Italy 2018, Non-MDR
  MIC: ≤ 0.25 µg/mL
[2]; A. baumannii IHMA 1884990, Germany 2018, Non-MDR
  MIC: ≤ 0.25 µg/mL
[2]; A. baumannii IHMA 1900538, Turkey 2018, Non-MDR
  MIC: ≤ 0.25 µg/mL
[2]; A. baumannii IHMA 1913773, Kenya 2018, Non-MDR
  MIC: ≤ 0.25 µg/mL
[2]; A. baumannii IHMA 1926285, Qatar 2018, Non-MDR
  MIC: ≤ 0.25 µg/mL
[2]; A. baumannii IHMA 1926288, Qatar 2018, MDR
  MIC: > 16 µg/mL
[2]; A. baumannii IHMA 1957343, Portugal 2019, Non-MDR
  MIC: ≤ 0.25 µg/mL
[2]; A. baumannii IHMA 1963732, Turkey 2019, MDR
  MIC: > 16 µg/mL
[2]; A. baumannii IHMA 1967860, Spain 2019, Non-MDR
  MIC: ≤ 0.25 µg/mL
[2]; A. baumannii IHMA 1971673, Latvia 2019, MDR
  MIC: > 16 µg/mL
[2]; A. baumannii IHMA 1975075, Israel 2019, Non-MDR
  MIC: ≤ 0.25 µg/mL
[2]; A. baumannii IHMA 1977077, Kuwait 2019, Non-MDR
  MIC: ≤ 0.25 µg/mL
[2]; A. baumannii IHMA 1983151, Greece 2019, MDR
  MIC: > 16 µg/mL
[2]; A. baumannii IHMA 1984665, Lithuania 2019, MDR
  MIC: > 16 µg/mL
[2]; A. baumannii IHMA 1986678, Turkey 2019, Non-MDR
  MIC: 0.5 µg/mL (≈ 1.67 µM)
[2]; A. baumannii IHMA 1986738, Turkey 2019, MDR
  MIC: > 16 µg/mL
[2]; A. baumannii IHMA 1987162, Croatia 2019, MDR
  MIC: > 16 µg/mL
[2]; A. baumannii IHMA 1993615, Turkey 2019, MDR
  MIC: > 16 µg/mL
[2]; A. baumannii IHMA 1994284, Italy 2019, MDR
  MIC: > 16 µg/mL
[2]; A. baumannii IHMA 1995161, Czech Republic 2019, Non-MDR
  MIC: ≤ 0.25 µg/mL
[2]; A. baumannii IHMA 1997936, Morocco 2019, Non-MDR
  MIC: ≤ 0.25 µg/mL
[2]; A. baumannii IHMA 1999178, Belgium 2019, Non-MDR
  MIC: ≤ 0.25 µg/mL
[2]; A. baumannii IHMA 2003279, Turkey 2019, MDR
  MIC: > 16 µg/mL
[2]; A. baumannii IHMA 2014367, Jordan 2019, Non-MDR
  MIC: ≤ 0.25 µg/mL
[2]; A. baumannii IHMA 2014931, South Africa 2019, Non-MDR
  MIC: ≤ 0.25 µg/mL
[2]; A. baumannii IHMA 2019315, Romania 2019, Non-MDR
  MIC: ≤ 0.25 µg/mL
[2]; A. baumannii IHMA 2020360, Croatia 2019, MDR
  MIC: > 16 µg/mL
[2]; A. baumannii IHMA 2031511, Greece 2019, Non-MDR
  MIC: ≤ 0.25 µg/mL
[2]; A. baumannii IHMA 2031524, Greece 2019, MDR
  MIC: > 16 µg/mL
[2]; A. baumannii IHMA 2034657, Tunisia 2019, Non-MDR
  MIC: ≤ 0.25 µg/mL
[2]; A. baumannii IHMA 2035089, Serbia 2019, MDR
  MIC: > 16 µg/mL
[2]; A. baumannii IHMA 2035134, Serbia 2019, Non-MDR
  MIC: ≤ 0.25 µg/mL
[2]; A. baumannii IHMA 2038976, Hungary 2019, MDR
  MIC: > 16 µg/mL
